Source: the SangsterLogP compilation

Compound	logP
Nc1cccc2c(N)cccc12	0.89
Nc1cc2ccccc2cc1N	1.54
Nc1cccc2ncccc12	1.27
Cc1ccc(N)c([N+](=O)[O-])c1	1.82
Nc1ccc2[nH]ncc2c1	0.65
Nc1nc2ccccc2[nH]1	1.34
Nc1ccc2[nH]ccc2c1	1.13
O=[N+]([O-])c1ccncc1	0.6
O=[N+]([O-])c1ccc2nn[nH]c2c1	1.95
O=[N+]([O-])c1ccc2nc[nH]c2c1	1.5
Nc1cccc2cccc(N)c12	1.78
Cc1cc(N)c([N+](=O)[O-])cc1C	2.07
